This note sets out measurements from US9663526B2, “Aminopyrimidinyl compounds” (Pfizer Inc., priority 2014, dated 2017).

The target of experiment [1] is recombinant human kinase domain of TYK2 (Homo sapiens (Human), UniProt P29597). The experiment in a line: JAK Caliper enzyme assay at 1 mM ATP (TYK2).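 On all read-outs here: microfluidic mobility-shift readout of synthetic peptide phosphorylation by TYK2, tuned to 20–30% conversion at room temperature, reaction stopped with EDTA, DMSO-only wells as uninhibited baseline.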 Type of experiment: biochemical. The following applies: for IC50: 1 mM ATP, read-out: IC50 (nM) TYK2.
Experiment [2] deals with recombinant human kinase domain of JAK1 (Homo sapiens (Human), UniProt P23458). The experiment in a line: JAK Caliper enzyme assay at 1 mM ATP (JAK1).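 On all read-outs here: microfluidic mobility-shift readout of synthetic fluorescent peptide phosphorylation, percent product converted from peak height, inhibition relative to DMSO-only wells as uninhibited baseline, room temperature incubation.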 The following applies: for IC50: 1 mM ATP, read-out: IC50 (nM) JAK1. The format is biochemical.
The test system of experiment [3] is interferon alpha signalling (TYK2 and JAK1), STAT3 phosphorylation. The experiment in a line: Human whole blood INFα induced STAT3 phosphorylation assay.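 Further: flow cytometry with anti-pSTAT3 staining, signal as percent-positive × mean fluorescence, baseline from unstimulated wells, 11-point dilution series, IC50 as inhibition of pSTAT3.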 The format is cell-based. The following applies: compound 60 minutes at 37° C., IFNα 5000 U/ml for 15 minutes, pSTAT3 in lymphocyte population by flow cytometry, read-out: HWB IFN alpha IC50. Background: Flow cytometry measures light scatter and fluorescence of single cells or particles in a stream.

Experiment [4] deals with recombinant human kinase domain of JAK3 (Homo sapiens (Human), UniProt P52333). The experiment in a line: JAK Caliper enzyme assay at 1 mM ATP (JAK3).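 On all read-outs here: microfluidic mobility-shift readout of synthetic peptide phosphorylation, percent product converted from peak heights, normalized to DMSO-only wells as uninhibited baseline, room temperature incubation.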 The format is biochemical. The following applies: for IC50: 1 mM ATP, read-out: IC50 (nM) JAK3.
Experiment [5] concerns the target recombinant human kinase domain of JAK2 (Homo sapiens (Human), UniProt O60674). The experiment in a line: JAK Caliper enzyme assay at 1 mM ATP (JAK2).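 Further: microfluidic mobility-shift read-out of fluorescent synthetic peptide phosphorylation, percent product converted from peak heights, room temperature, DMSO-only wells as uninhibited baseline, inhibition curve fit.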 Type of experiment: biochemical.

pIC50: −log10 of the molar value. Read-outs that look alike come from different tables or passages of the source.

recombinant human kinase domain of TYK2, sequence (P29597 897-1176): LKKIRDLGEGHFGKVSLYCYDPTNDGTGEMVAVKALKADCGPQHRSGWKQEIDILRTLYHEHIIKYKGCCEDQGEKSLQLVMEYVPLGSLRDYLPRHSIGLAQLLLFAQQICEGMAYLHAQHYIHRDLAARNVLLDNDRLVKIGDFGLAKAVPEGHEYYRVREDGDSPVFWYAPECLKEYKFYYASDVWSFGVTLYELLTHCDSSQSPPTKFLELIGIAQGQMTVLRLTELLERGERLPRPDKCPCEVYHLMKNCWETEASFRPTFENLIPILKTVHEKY
recombinant human kinase domain of JAK3, sequence (P52333 822-1111): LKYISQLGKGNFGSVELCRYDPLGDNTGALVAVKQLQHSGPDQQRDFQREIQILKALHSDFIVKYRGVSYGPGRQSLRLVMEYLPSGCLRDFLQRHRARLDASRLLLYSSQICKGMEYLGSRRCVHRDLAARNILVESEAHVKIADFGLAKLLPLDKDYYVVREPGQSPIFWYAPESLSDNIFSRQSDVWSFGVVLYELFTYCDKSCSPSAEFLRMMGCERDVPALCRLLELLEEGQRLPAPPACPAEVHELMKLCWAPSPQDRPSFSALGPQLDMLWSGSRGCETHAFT
recombinant human kinase domain of JAK2, sequence (O60674 849-1124): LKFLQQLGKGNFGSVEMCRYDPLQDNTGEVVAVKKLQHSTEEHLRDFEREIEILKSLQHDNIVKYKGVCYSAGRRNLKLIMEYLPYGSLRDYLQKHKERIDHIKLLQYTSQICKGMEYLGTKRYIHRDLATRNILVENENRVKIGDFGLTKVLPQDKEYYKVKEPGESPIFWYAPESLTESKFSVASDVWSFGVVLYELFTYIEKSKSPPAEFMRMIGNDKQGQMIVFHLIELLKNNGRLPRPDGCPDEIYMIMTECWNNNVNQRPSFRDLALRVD
recombinant human kinase domain of JAK1, sequence (P23458 875-1153): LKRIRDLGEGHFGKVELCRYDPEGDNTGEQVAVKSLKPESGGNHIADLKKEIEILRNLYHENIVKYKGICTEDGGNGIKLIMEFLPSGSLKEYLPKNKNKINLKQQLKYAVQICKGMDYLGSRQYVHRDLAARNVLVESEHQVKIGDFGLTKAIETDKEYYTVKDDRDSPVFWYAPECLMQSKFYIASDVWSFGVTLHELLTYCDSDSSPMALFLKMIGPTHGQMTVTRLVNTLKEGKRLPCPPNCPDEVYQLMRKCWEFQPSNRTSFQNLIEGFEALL

`CNC(=O)c1ncc(Nc2nccc(N3C[C@H]4CC[C@@H](C3)N4C(=O)[C@@H]3CC3(F)F)n2)cc1F` [Example 29, 5-({4-[(1R,5S)-8-{[(1S)-2,2-difluorocyclopropyl]carbonyl}-3,8-diazabicyclo[3.2.1]oct-3-yl]pyrimidin-2-yl}amino)-3-fluoro-N-methylpyridine-2-carboxamide]: the IC50 (usually the point on the concentration scale where inhibition reaches its midpoint) in experiment [1] was 31 nM; in experiment [4] it was greater than 10000 nM; in experiment [5], 487 nM. Also, the values for the pIC50 in experiment [2] and in experiment [3] were 6.88 and 6.93, respectively.
Consider `O=C(C1CC1)N1[C@@H]2CC[C@H]1CN(c1ccnc(Nc3cn[nH]c3)n1)C2` [Example 49, cyclopropyl{(1R,5S)-3-[2-(1H-pyrazol-4-ylamino)pyrimidin-4-yl]-3,8-diazabicyclo[3.2.1]oct-8-yl}methanone], for which the IC50 was 49 nM in experiment [1], 77 nM in experiment [2], greater than 10000 nM in experiment [4] and 614 nM in experiment [5]. For the same compound, the pIC50 (in general, the negative decadic logarithm of the IC50, by convention in mol/L) in experiment [3] was 7.07.
In the case of `CCNC(=O)c1ccc(Nc2ncc(F)c(N3CC4CC(C3)N4C(=O)C(C)(C)F)n2)cc1C` [Example 112, N-ethyl-4-({5-fluoro-4-[6-(2-fluoro-2-methylpropanoyl)-3,6-diazabicyclo[3.1.1]hept-3-yl]pyrimidin-2-yl}amino)-2-methylbenzamide], the IC50 in experiment [1] was 21 nM; in experiment [2], 4070 nM; in experiment [4] it was greater than 10000 nM; in experiment [5], 3040 nM. Besides, the pIC50 in experiment [3] was 6.11.
The like results for `Cn1cc(Nc2nccc(N3C[C@H]4CC[C@@H](C3)N4C3(CC#N)COC3)n2)cn1` [Example 84, {3-[(1R,5S)-3-{2-[(1-methyl-1H-pyrazol-4-yl)amino]pyrimidin-4-yl}-3,8-diazabicyclo[3.2.1]oct-8-yl]oxetan-3-yl}acetonitrile] were, in that order, 62 nM, 141 nM, greater than 10000 nM, 155 nM and 6.81.
Consider `Cn1cc(Nc2nccc(N3C[C@H]4CC[C@@H](C3)N4Cc3ccno3)n2)cn1` [Example 56, N-(1-methyl-1H-pyrazol-4-yl)-4-[(1R,5S)-8-(1,2-oxazol-5-ylmethyl)-3,8-diazabicyclo[3.2.1]oct-3-yl]pyrimidin-2-amine], for which the IC50 in experiment [1] is 41 nM; in experiment [2], 110 nM; in experiment [4] it was greater than 10000 nM; in experiment [5], 394 nM. The pIC50 in experiment [3] is 7.11.
As to `C[C@@H](CO)c1ccc(Nc2nccc(N3C[C@H]4CC[C@@H](C3)N4C(=O)[C@@H]3CC3(F)F)n2)cn1` (single isomer, unassigned) [Example 11], the pIC50 is 7.40 in experiment [1] and 6.87 in experiment [3]. In addition, the IC50 in experiment [2] is 139 nM; in experiment [4], greater than 10000 nM; in experiment [5], 141 nM.
Regarding `CCNC(=O)N1[C@@H]2CC[C@H]1CN(c1ccnc(Nc3cnc(C(=O)NC)c(C)c3)n1)C2` [Example 91, (1R,5S)—N-ethyl-3-(2-{[5-methyl-6-(methylcarbamoyl)pyridin-3-yl]amino}pyrimidin-4-yl)-3,8-diazabicyclo[3.2.1]octane-8-carboxamide], the IC50 in experiment [1] was 39 nM; in experiment [2], 183 nM; in experiment [4] it was greater than 10000 nM; in experiment [5] it was 513 nM. Moreover, the pIC50 in experiment [3] was 6.71.
Regarding `O=C([C@@H]1CC1(F)F)N1[C@@H]2CC[C@H]1CN(c1ccnc(Nc3cnc(N4CC(O)C4)c(F)c3)n1)C2` [Example 22, [(1S)-2,2-difluorocyclopropyl][(1R,5S)-3-(2-{[5-fluoro-6-(3-hydroxyazetidin-1-yl)pyridin-3-yl]amino}pyrimidin-4-yl)-3,8-diazabicyclo[3.2.1]oct-8-yl]methanone], the IC50 in experiment [1] is 55 nM; in experiment [2], 490 nM; in experiment [4] it was greater than 10000 nM; in experiment [5], 312 nM. For the same compound, the pIC50 in experiment [3] was 6.39.
Consider `CNC(=O)c1ncc(Nc2nccc(N3C[C@H]4CC[C@@H](C3)N4C(=O)[C@@H]3C[C@H]3C#N)n2)cc1Cl` [Example 31, 3-chloro-5-({4-[(1R,5S)-8-{[(1R,2R)-2-cyanocyclopropyl]carbonyl}-3,8-diazabicyclo[3.2.1]oct-3-yl]pyrimidin-2-yl}amino)-N-methylpyridine-2-carboxamide], for which the IC50 was 32 nM in experiment [1], 78 nM in experiment [2], greater than 10000 nM in experiment [4] and 401 nM in experiment [5]. Also, in experiment [3], the pIC50 was 6.55.
With `CNC(=O)c1ncc(Nc2nccc(N3C[C@H]4CC[C@@H](C3)N4C(=O)C3CC3)n2)cc1Cl` [Example 30, 3-chloro-5-({4-[(1R,5S)-8-(cyclopropylcarbonyl)-3,8-diazabicyclo[3.2.1]oct-3-yl]pyrimidin-2-yl}amino)-N-methylpyridine-2-carboxamide], the IC50 in experiment [1] was 97 nM; in experiment [2], 1160 nM; in experiment [4] it was greater than 10000 nM; in experiment [5], 2130 nM. Moreover, the pIC50 in experiment [3] is 6.19.
For `Cn1cc(Nc2ncc(F)c(N3C[C@@]4(CO)C[C@@]4(NC(=O)[C@@H]4C[C@H]4C#N)C3)n2)cn1` [Example 110, (1R,2R)-2-cyano-N-[(1S,5S)-3-{5-fluoro-2-[(1-methyl-1H-pyrazol-4-yl)amino]pyrimidin-4-yl}-5-(hydroxymethyl)-3-azabicyclo[3.1.0]hex-1-yl]cyclopropanecarboxamide], the IC50 in experiment [1] turned out to be 58 nM; in experiment [2], 29 nM; in experiment [4] it was 928 nM; in experiment [5], 455 nM. Also, the pIC50 in experiment [3] is 6.84.
For `CNC(=O)c1ncc(Nc2nccc(N3C[C@H]4CC[C@@H](C3)N4C(=O)[C@@H]3CC3(F)F)n2)cc1Cl` [Example 10, 3-chloro-5-({4-[(1R,5S)-8-{[(1S)-2,2-difluorocyclopropyl]carbonyl}-3,8-diazabicyclo[3.2.1]oct-3-yl]pyrimidin-2-yl}amino)-N-methylpyridine-2-carboxamide], the IC50 in experiment [1] was 22 nM; in experiment [2] it was 171 nM; in experiment [4], greater than 10000 nM; in experiment [5], 367 nM. Further, in experiment [3], the pIC50 was 6.36.
Consider `O=C([C@@H]1CC1(F)F)N1[C@@H]2CC[C@H]1CN(c1ccnc(Nc3cnc(CO)c(F)c3)n1)C2` [Example 25, [(1S)-2,2-difluorocyclopropyl][(1R,5S)-3-(2-{[5-fluoro-6-(hydroxymethyl)pyridin-3-yl]amino}pyrimidin-4-yl)-3,8-diazabicyclo[3.2.1]oct-8-yl]methanone], for which the IC50 is 34 nM in experiment [1], 317 nM in experiment [2], greater than 10000 nM in experiment [4] and 468 nM in experiment [5]. In addition, in experiment [3], the pIC50 is 6.64.
`CNC(=O)c1ncc(Nc2nccc(N3C[C@H]4CC[C@@H](C3)N4[C@H]3C[C@@H](C#N)C3)n2)cc1C` (single isomer, unassigned) [Example 61]: the IC50 came out at 18 nM in experiment [1] and 44 nM in experiment [5]. Further, the pIC50 in experiment [2] was 7.51; in experiment [3] it was 6.87; in experiment [4] it was 5.39.
Turning to `Cn1cc(Nc2nccc(N3C[C@H]4CC[C@@H](C3)N4C[C@@H]3CC3(F)F)n2)cn1` [Example 64, 4-[(1R,5S)-8-{[(1S)-2,2-difluorocyclopropyl]methyl}-3,8-diazabicyclo[3.2.1]oct-3-yl]-N-(1-methyl-1H-pyrazol-4-yl)pyrimidin-2-amine], the IC50 is 41 nM in experiment [1], 95 nM in experiment [2], greater than 10000 nM in experiment [4] and 320 nM in experiment [5]. Also, the pIC50 in experiment [3] was 7.15.
